Results reported in EP0137083A1, “1,5-Benzothiazepine derivatives and production thereof” (HAMARI YAKUHIN KOGYO KABUSHIKI KAISHA also known as HAMARI …, priority 1983, dated 1985).

Columns and labels:
Type in all cases: in vivo
[1] = test system: Yeast-induced Pyresis in Rats; experiment: Anti-pyretic activity, temperature regulation in yeast-induced pyretic rats; conditions: I.P.; for Rectal Temperature (C^o, Mean+ S.D.), Time after Treatment (hour) 0: 0 hour (just prior to drug administration); for Rectal Temperature (C^o, Mean+ S.D.), Time after Treatment (hour) 0.5: 0.5 hour; for Rectal Temperature (C^o, Mean+ S.D.), Time after Treatment (hour) 1.0: 1.0 hour; for Rectal Temperature (C^o, Mean+ S.D.), Time after Treatment (hour) 1.5: 1.5 hour; for Rectal Temperature (C^o, Mean+ S.D.), Time after Treatment (hour) 2.0: 2.0 hour; for Rectal Temperature, Change C^o: average at 0.5-2.0 hours versus vehicle (39.8)
Experimental: (3) Anti-pyretic Activity (Temperature Regulation in Pyretic Rats) Rats, weighing 220 - 300 g, were treated subcutaneously in the nape of the neck with 6 ml of 40 % suspension of dried Brewer's yeast in distilled water. Groups of 3 rats were treated intraperitoneally with the compound 17 hours challenge. Rectal temperature were recorded with a thermister type thermometer (Type BMA-77 produced by Natsume Seisalusho, Japan) just prior to the drug administration and at 30 minutes intervals for 2 hours.

writhing syndrome = experiment: Analgesic activity, mouse anti-writhing method (acetic acid-induced writhing); conditions: mice, I.P., 45 minutes before acetic acid
Experimental: (2) Analgestic Activity (Mouse Anti-Writhing Method)
Groups of 5 mice each, weighing 26 - 32 g, were treated intraperitoneally with the compounds. The method is based on the antagonism of a writhing syndrome (abnormal contraction and twisting of the body) produced by the intraperitoneal injection of 10 ml/kg of 0.7 X acetic acid-saline solution. Ten minutes after the acetic acid injection, the number of writhes observed in a 10 minute counting period was recorded. The compound was administered 45 minutes before the acetic acid injection.

Mice = experiment: Minimum lethal dose test in mice (mortality after intraperitoneal dosing); conditions: I.P.; for No. of dead Animals, Day of test 0 / No. of dead Animals, Day of test 1 / No. of dead Animals, Day of test 2 / No. of dead Animals, Total: 2 animals
Experimental: (1) Minimum Lethal Dose Test in Mice
Groups of 2 mice each, weighing 29 - 36 g, were treated intraperitoneally with the compound and observed for signs of - central, autaonomic and toxic responses for 5 hours. Mortality counts were made on days 0, 1 and 2 (day 0 is the dosing day).

[2] = 60 mg/kg, first series (vehicle 10.9 ± 8.9)
[3] = 60 mg/kg, second series (vehicle 12.8 ± 6.3)
[4] = 30 mg/kg, first series (vehicle 10.9 ± 8.9)

For `Cc1c(N(C)C)c(=O)n(-c2ccccc2)n1C` [Amino-pyrin, reference compound], the “Rectal Temperature, Average at 0.5-2.0 Hours Post-tretment” value ([1]; 30 mg/kg) was 37.5 C^o, the “Rectal Temperature (C^o, Mean+ S.D.), Time after Treatment (hour) 0” value ([1]; 30 mg/kg) was 39.6±0.10 C^o and the “Rectal Temperature (C^o, Mean+ S.D.), Time after Treatment (hour) 0.5” value ([1]; 30 mg/kg) was 38.1±0.50 C^o. For the same compound, the “Rectal Temperature (C^o, Mean+ S.D.), Time after Treatment (hour) 1.0” value ([1]; 30 mg/kg) was 37.2±0.58 C^o, the “Rectal Temperature (C^o, Mean+ S.D.), Time after Treatment (hour) 1.5” value ([1]; 30 mg/kg) was 37.2±0.53 C^o and the “Rectal Temperature (C^o, Mean+ S.D.), Time after Treatment (hour) 2.0” value ([1]; 30 mg/kg) was 37.4±0.46 C^o. The “Rectal Temperature, Change C^o” value ([1]; 30 mg/kg) was -2.3 C^o.

In the case of `COc1ccc(C2Sc3ccccc3N(CCN(C)C)C(=O)C2=O)cc1` (centres unmarked) [Ia, 2-(4-methoxyphenyl)-2,3-dihydro-5-(2-dimethylaminoethyl)-1,5-benzothiazepine-3,4(5H)-dione], the “Rectal Temperature, Average at 0.5-2.0 Hours Post-tretment” value ([1]; 60 mg/kg) is reported as 38.7 C^o, the “Rectal Temperature (C^o, Mean+ S.D.), Time after Treatment (hour) 0” value ([1]; 60 mg/kg) is reported as 39.7±0.15 C^o and the “Rectal Temperature (C^o, Mean+ S.D.), Time after Treatment (hour) 0.5” value ([1]; 60 mg/kg) is reported as 38.4±0.57 C^o. The “Rectal Temperature (C^o, Mean+ S.D.), Time after Treatment (hour) 1.0” value ([1]; 60 mg/kg) was 38.4±0.35 C^o, the “Rectal Temperature (C^o, Mean+ S.D.), Time after Treatment (hour) 1.5” value ([1]; 60 mg/kg) was 38.8±0.49 C^o and the “Rectal Temperature (C^o, Mean+ S.D.), Time after Treatment (hour) 2.0” value ([1]; 60 mg/kg) was 39.0±0.51 C^o. For the same compound, the “Rectal Temperature, Change C^o” value ([1]; 60 mg/kg) was -1.1 C^o, the “% Change from Control” value (writhing syndrome; [2]) was -92.7% and the “No. of Writhes (Mean + S.D.)” value (writhing syndrome; [2]) was 0.8 ± 1.3. The “% Change from Control” value (writhing syndrome; [3]) was -100.0%, the “No. of Writhes (Mean + S.D.)” value (writhing syndrome; [3]) was 0.0 ± 0.0 and the “No. of dead Animals, Day of test 0” value (Mice; 10 mg/kg) was 0. For the same compound, the “No. of dead Animals, Day of test 1” value (Mice; 10 mg/kg) was 0, the “No. of dead Animals, Day of test 2” value (Mice; 10 mg/kg) was 0 and the “No. of dead Animals, Total” value (Mice; 10 mg/kg) was 0. For the same compound, the “No. of dead Animals, Day of test 0” value (Mice; 30 mg/kg) was 0, the “No. of dead Animals, Day of test 1” value (Mice; 30 mg/kg) was 0 and the “No. of dead Animals, Day of test 2” value (Mice; 30 mg/kg) was 0. For the same compound, the “No. of dead Animals, Total” value (Mice; 30 mg/kg) was 0, the “No. of dead Animals, Day of test 0” value (Mice; 100 mg/kg) was 0 and the “No. of dead Animals, Day of test 1” value (Mice; 100 mg/kg) was 0. For the same compound, the “No. of dead Animals, Day of test 2” value (Mice; 100 mg/kg) was 0, the “No. of dead Animals, Total” value (Mice; 100 mg/kg) was 0 and the “No. of dead Animals, Day of test 0” value (Mice; 300 mg/kg) was 2. The “No. of dead Animals, Total” value (Mice; 300 mg/kg) was 2 and the “Minimum Acute Lethal Dose” value (Mice; mortality counted on days 0, 1 and 2) was 300 mg/kg.

For `CC(C)=CCN1CCC2(C)c3cc(O)ccc3CC1C2C` (centres unmarked) [Pentazo-cine, reference compound], the “% Change from Control” value (writhing syndrome; [4]) was -83.5% and the “No. of Writhes (Mean + S.D.)” value (writhing syndrome; [4]) was 1.8 ± 2.2.
